According to ChEMBL document CHEMBL1156475, “Efficient inhibition of class A and class D beta-lactamases by Michaelis complexes” (J Biol Chem, 2007):

How the values were obtained:
[1] = Inhibition of beta lactamase SHV1
[2] = biological target: Beta-lactamase OXA-1 (Escherichia coli) (UniProt P13661); test: Inhibition of Escherichia coli beta lactamase OXA-1
[3] = Inhibition of beta lactamase TEM1
[4] = Inhibition of beta lactamase P99

Beta-lactamase OXA-1 (Escherichia coli), sequence (P13661 whole entry): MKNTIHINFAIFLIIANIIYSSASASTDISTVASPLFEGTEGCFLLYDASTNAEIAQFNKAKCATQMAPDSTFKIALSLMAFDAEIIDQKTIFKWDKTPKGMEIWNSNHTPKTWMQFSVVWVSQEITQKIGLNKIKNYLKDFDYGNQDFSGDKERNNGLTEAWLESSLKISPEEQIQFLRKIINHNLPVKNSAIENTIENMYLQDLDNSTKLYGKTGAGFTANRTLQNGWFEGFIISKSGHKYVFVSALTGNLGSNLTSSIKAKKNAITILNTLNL

Row | SMILES | Kinact [1] [nM] | Kinact [2] [µM] | IC50 [3] [nM] | IC50 [4] [nM]
1 | C[C@]1(Cn2ccnn2)[C@H](C(=O)O)N2C(=O)C[C@H]2S1(=O)=O | 330 |  |  | 
2 | C[C@]1(COC(=O)Cc2ccccc2)[C@H](C(=O)O)N2C(=O)/C(=C/c3ccccn3)[C@H]2S1(=O)=O | 42 | 1 | 40 | 1
